Measurements as given in ChEMBL document CHEMBL1201862, “PubChem BioAssay data set” (2004).
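Growth conditions: 96-well plates. Treatment: test compound, 48 hours, 5 concentrations. Analysis: linear interpolation between bracketing concentrations; unreached endpoints set to highest concentration. Abbreviation: GI50, concentration required for 50% inhibition of growth.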 Active and inactive are the calls of the source. No stated cut-off is given here; in the data, active = GI50 up to about 1.1 µM and inactive = higher.

How the values were obtained:
Assay in all cases: growth of human tumour cells (NCI), 48 h
NCI-H226 = tested on: NCI-H226
UO-31 = tested on: UO-31
EKVX = tested on: EKVX
OVCAR-8 = tested on: OVCAR-8
HCC 2998 = tested on: HCC 2998
A498 = tested on: A498
CCRF-CEM = tested on: CCRF-CEM
T47D = tested on: T47D
SF-539 = tested on: SF-539
HT-29 = tested on: HT-29
SF-295 = tested on: SF-295
K562 = tested on: K562
SR = tested on: SR
DU-145 = tested on: DU-145
SF-268 = tested on: SF-268
MDA-N = tested on: MDA-N
Hs-578T = tested on: Hs-578T
SK-OV-3 = tested on: SK-OV-3
UACC-62 = tested on: UACC-62
U-251 = tested on: U-251
HOP-62 = tested on: HOP-62
RXF 393 = tested on: RXF 393
M14 = tested on: M14
KM12 = tested on: KM12
SNB-75 = tested on: SNB-75
NCI-H460 = tested on: NCI-H460
SNB-19 = tested on: SNB-19
NCI-H23 = tested on: NCI-H23
NCI/ADR-RES = tested on: NCI/ADR-RES
SK-MEL-5 = tested on: SK-MEL-5
OVCAR-4 = tested on: OVCAR-4
BT-549 = tested on: BT-549
MCF7 = tested on: MCF7
HCT-116 = tested on: HCT-116
OVCAR-5 = tested on: OVCAR-5
HOP-92 = tested on: HOP-92
CAKI-1 = tested on: CAKI-1
HCT-15 = tested on: HCT-15
ACHN = tested on: ACHN
TK-10 = tested on: TK-10
SK-MEL-28 = tested on: SK-MEL-28
PC-3 = tested on: PC-3
MDA-MB-231 = tested on: MDA-MB-231
COLO 205 = tested on: COLO 205
SK-MEL-2 = tested on: SK-MEL-2
A549 = tested on: A549
NCI-H522 = tested on: NCI-H522
IGROV-1 = tested on: IGROV-1
SN12C = tested on: SN12C
HL-60 = tested on: HL-60
RPMI-8226 = tested on: RPMI-8226
UACC-257 = tested on: UACC-257
LOX IMVI = tested on: LOX IMVI
MDA-MB-435 = tested on: MDA-MB-435
OVCAR-3 = tested on: OVCAR-3
Malme-3M = tested on: Malme-3M
SW-620 = tested on: SW-620
786-0 = tested on: 786-0
MOLT-4 = tested on: MOLT-4

## CSC(=S)N/N=C/c1ccccc1
NCI-H226
  GI50: 40.6 µM (inactive)
UO-31
  GI50: 34.7 µM (inactive)
EKVX
  GI50: 24.4 µM (inactive)
OVCAR-8
  GI50: 37.1 µM (inactive)
HCC 2998
  GI50: > 100 µM (inactive)
A498
  GI50: > 100 µM (inactive)
CCRF-CEM
  GI50: 26 µM (inactive)
T47D
  GI50: 16.3 µM (inactive)
SF-539
  GI50: 56.6 µM (inactive)
HT-29
  GI50: 33 µM (inactive)
SF-295
  GI50: 39.2 µM (inactive)
K562
  GI50: 42.5 µM (inactive)
SR
  GI50: 40.8 µM (inactive)
DU-145
  GI50: 42.3 µM (inactive)
SF-268
  GI50: 40.1 µM (inactive)
MDA-N
  GI50: 41.9 µM (inactive)
Hs-578T
  GI50: > 100 µM (inactive)
SK-OV-3
  GI50: > 100 µM (inactive)
UACC-62
  GI50: 37.4 µM (inactive)
U-251
  GI50: 52.6 µM (inactive)
HOP-62
  GI50: 40.7 µM (inactive)
RXF 393
  GI50: 28.8 µM (inactive)
M14
  GI50: 29.4 µM (inactive)
KM12
  GI50: 65.6 µM (inactive)
SNB-75
  GI50: 58.7 µM (inactive)
NCI-H460
  GI50: 43.7 µM (inactive)
SNB-19
  GI50: 53.7 µM (inactive)
NCI-H23
  GI50: 33.5 µM (inactive)
NCI/ADR-RES
  GI50: 25.4 µM (inactive)
SK-MEL-5
  GI50: 22.5 µM (inactive)
OVCAR-4
  GI50: 24.3 µM (inactive)
BT-549
  GI50: 46.3 µM (inactive)
MCF7
  GI50: 33.6 µM (inactive)
HCT-116
  GI50: 29.6 µM (inactive)
OVCAR-5
  GI50: > 100 µM (inactive)
HOP-92
  GI50: 26.9 µM (inactive)
CAKI-1
  GI50: 24.5 µM (inactive)
HCT-15
  GI50: 34.4 µM
ACHN
  GI50: 43.4 µM (inactive)
TK-10
  GI50: > 100 µM (inactive)
SK-MEL-28
  GI50: 94.2 µM (inactive)
PC-3
  GI50: 97.9 µM (inactive)
MDA-MB-231
  GI50: > 100 µM (inactive)
COLO 205
  GI50: 31.5 µM (inactive)
SK-MEL-2
  GI50: > 100 µM (inactive)
A549
  GI50: 43.2 µM (inactive)
NCI-H522
  GI50: 52.6 µM (inactive)
IGROV-1
  GI50: 22.3 µM (inactive)
SN12C
  GI50: 50.2 µM (inactive)
HL-60
  GI50: 36 µM (inactive)
RPMI-8226
  GI50: 36.4 µM (inactive)
UACC-257
  GI50: > 100 µM (inactive)
LOX IMVI
  GI50: 45.1 µM (inactive)
MDA-MB-435
  GI50: 47.4 µM (inactive)
OVCAR-3
  GI50: 42 µM (inactive)
Malme-3M
  GI50: 36.5 µM (inactive)
SW-620
  GI50: 54.8 µM (inactive)
786-0
  GI50: 39.4 µM (inactive)

## COC(=O)C1OC(O[C@H]2CC[C@]3(C)[C@H]4CC=C5[C@@H]6CC(C)(C)CC[C@]6(C(=O)OC)CC[C@@]5(C)[C@]4(C)CC[C@H]3C2(C)C)C(O)C(O)C1O (stereo partly specified)
NCI-H226
  GI50: 18.3 µM (inactive)
UO-31
  GI50: 19.3 µM (inactive)
EKVX
  GI50: 12.4 µM (inactive)
OVCAR-8
  GI50: 13.6 µM (inactive)
HCC 2998
  GI50: 7.76 µM (inactive)
A498
  GI50: 19.8 µM (inactive)
CCRF-CEM
  GI50: 5.66 µM (inactive)
T47D
  GI50: 19.7 µM (inactive)
HT-29
  GI50: 10.5 µM (inactive)
SF-295
  GI50: 15.1 µM (inactive)
K562
  GI50: 14.9 µM (inactive)
SR
  GI50: 3.72 µM (inactive)
DU-145
  GI50: 14.5 µM (inactive)
MOLT-4
  GI50: 11.4 µM (inactive)
SF-268
  GI50: 17.8 µM (inactive)
MDA-N
  GI50: 17 µM (inactive)
Hs-578T
  GI50: 19.9 µM (inactive)
SK-OV-3
  GI50: 20.2 µM (inactive)
UACC-62
  GI50: 14.7 µM (inactive)
U-251
  GI50: 11.4 µM (inactive)
HOP-62
  GI50: 18 µM (inactive)
RXF 393
  GI50: 5.62 µM (inactive)
M14
  GI50: 16.2 µM (inactive)
KM12
  GI50: 7.52 µM (inactive)
SNB-75
  GI50: 17.1 µM (inactive)
NCI-H460
  GI50: 8.38 µM (inactive)
SNB-19
  GI50: 15.2 µM (inactive)
NCI-H23
  GI50: 11.9 µM (inactive)
NCI/ADR-RES
  GI50: 15.8 µM (inactive)
SK-MEL-5
  GI50: 18.2 µM (inactive)
OVCAR-4
  GI50: 14.4 µM (inactive)
BT-549
  GI50: 17.8 µM (inactive)
MCF7
  GI50: 12.5 µM (inactive)
HCT-116
  GI50: 12.3 µM (inactive)
OVCAR-5
  GI50: 14.6 µM (inactive)
HOP-92
  GI50: 19.4 µM (inactive)
CAKI-1
  GI50: 8.85 µM (inactive)
HCT-15
  GI50: 13.9 µM
ACHN
  GI50: 11.8 µM (inactive)
SK-MEL-28
  GI50: 18.5 µM (inactive)
PC-3
  GI50: 15.1 µM (inactive)
MDA-MB-231
  GI50: 4.45 µM (inactive)
COLO 205
  GI50: 16.1 µM (inactive)
SK-MEL-2
  GI50: 17.3 µM (inactive)
A549
  GI50: 7.14 µM (inactive)
NCI-H522
  GI50: 15.4 µM (inactive)
IGROV-1
  GI50: 18 µM (inactive)
SN12C
  GI50: 13.1 µM (inactive)
HL-60
  GI50: 18.1 µM (inactive)
RPMI-8226
  GI50: 20.1 µM (inactive)
UACC-257
  GI50: 19.5 µM (inactive)
LOX IMVI
  GI50: 6.67 µM (inactive)
MDA-MB-435
  GI50: 16.5 µM (inactive)
OVCAR-3
  GI50: 4.34 µM (inactive)
Malme-3M
  GI50: 21 µM (inactive)
SW-620
  GI50: 17 µM (inactive)
786-0
  GI50: 6.73 µM (inactive)

## O=c1oc2ccccc2cc1P(=O)(O)O
NCI-H226
  GI50: > 100 µM (inactive)
EKVX
  GI50: > 100 µM (inactive)
OVCAR-8
  GI50: > 100 µM (inactive)
HCC 2998
  GI50: > 100 µM (inactive)
A498
  GI50: > 100 µM (inactive)
CCRF-CEM
  GI50: > 100 µM (inactive)
T47D
  GI50: > 100 µM (inactive)
SF-539
  GI50: > 100 µM (inactive)
HT-29
  GI50: > 100 µM (inactive)
SF-295
  GI50: > 100 µM (inactive)
K562
  GI50: > 100 µM (inactive)
SR
  GI50: > 100 µM (inactive)
DU-145
  GI50: > 100 µM (inactive)
MOLT-4
  GI50: > 100 µM (inactive)
SF-268
  GI50: > 100 µM (inactive)
MDA-N
  GI50: > 100 µM (inactive)
Hs-578T
  GI50: > 100 µM (inactive)
UACC-62
  GI50: > 100 µM (inactive)
U-251
  GI50: > 100 µM (inactive)
HOP-62
  GI50: > 100 µM (inactive)
RXF 393
  GI50: > 100 µM (inactive)
M14
  GI50: > 100 µM (inactive)
SNB-75
  GI50: > 100 µM (inactive)
NCI-H460
  GI50: > 100 µM (inactive)
SNB-19
  GI50: > 100 µM (inactive)
NCI-H23
  GI50: > 100 µM (inactive)
NCI/ADR-RES
  GI50: > 100 µM (inactive)
SK-MEL-5
  GI50: > 100 µM (inactive)
OVCAR-4
  GI50: > 100 µM (inactive)
BT-549
  GI50: > 100 µM (inactive)
MCF7
  GI50: > 100 µM (inactive)
HCT-116
  GI50: > 100 µM (inactive)
OVCAR-5
  GI50: > 100 µM (inactive)
HOP-92
  GI50: > 100 µM (inactive)
CAKI-1
  GI50: > 100 µM (inactive)
HCT-15
  GI50: > 100 µM
ACHN
  GI50: > 100 µM (inactive)
TK-10
  GI50: > 100 µM (inactive)
SK-MEL-28
  GI50: > 100 µM (inactive)
PC-3
  GI50: > 100 µM (inactive)
MDA-MB-231
  GI50: > 100 µM (inactive)
COLO 205
  GI50: > 100 µM (inactive)
SK-MEL-2
  GI50: > 100 µM (inactive)
A549
  GI50: > 100 µM (inactive)
NCI-H522
  GI50: > 100 µM (inactive)
IGROV-1
  GI50: > 100 µM (inactive)
SN12C
  GI50: > 100 µM (inactive)
HL-60
  GI50: > 100 µM (inactive)
RPMI-8226
  GI50: > 100 µM (inactive)
UACC-257
  GI50: > 100 µM (inactive)
LOX IMVI
  GI50: > 100 µM (inactive)
MDA-MB-435
  GI50: > 100 µM (inactive)
OVCAR-3
  GI50: > 100 µM (inactive)
Malme-3M
  GI50: > 100 µM (inactive)
SW-620
  GI50: > 100 µM (inactive)
786-0
  GI50: > 100 µM (inactive)
